Data taken from patent US9682925B2, “Cyclopropaneamine compound” (TAKEDA PHARMACEUTICAL COMPANY LIMITED, priority 2011, dated 2017).
Structures can show the parent of a compound that is named as a salt.

Tests used:
Type in all cases: biochemical
human LSD1(171-852) = target: T1, human LSD1(171-852) (Homo sapiens, UniProt O60341); assay: Measurement of LSD1 inhibitory activity (time-resolved fluorescence, biotin-histone H3 mono methylated K4 peptide); details: read-out: LSD1 IC50 value
T1 construct: to give hLSD1(171-852) purified product; made in house; host or cells: Escherichia coli C43(DE3) pLysS
Description: When the turbidity reached 600 Klett units, the culture temperature was changed to 16° C., IPTG having a final concentration of 0.5 mM was added to induce expression, and the cells were cultured further for 21 hr. The culture medium was centrifuged at 9,000 g for 10 min, and Escherichia coli pellets were recovered.
Escherichia coli pellets in 9 L of the culture medium were suspended in 1340 mL of an extraction buffer (PBS, 5% (V/V) Glycerol), and 6700 units of Benzonase (Merck) were added. Using Branson ultrasonic disintegrator, the suspension was disrupted by ultrasonication for 3 min, and centrifuged at 33,000 g for 20 min, and the supernatant was recovered.
(5) Measurement of LSD1 Inhibitory Activity
After reaction at room temperature for 20 min, 1 mM 2-PCPA solution (5 μL) was added to terminate the reaction. A detection solution (800 mM potassium fluoride, 0.1% BSA) containing europium-labeled antihistone H3 antibody (Wako Pure Chemical Industries, Ltd.) and Streptavidin-XL665 (Cisbio) was further added by 5 μL, and the mixture was left standing for 60 min. A time-resolved fluorescence (excitation 320 nm, emission 615 nm, 665 nm) was measured by Envision (PerkinElmer). The LSD1 inhibitory rate (%) of the test compound was calculated by the following formula. inhibitory rate (%)=(1−(test compound count−blank)÷(control−blank)×100
The count of the LSD1 enzyme reaction mixture under compound non-addition conditions is indicated as control, and the count under compound non-addition and LSD1 enzyme non-addition conditions is indicated as blank.

MAO-A = target: T2, MAO-A (Homo sapiens, UniProt P21397); assay: Measurement of MAO-A inhibitory activity (MAO-Glo Assay)
T2 construct: purchased Sigma-Aldrich Co. LLC
T2 sequence (P21397 1-527): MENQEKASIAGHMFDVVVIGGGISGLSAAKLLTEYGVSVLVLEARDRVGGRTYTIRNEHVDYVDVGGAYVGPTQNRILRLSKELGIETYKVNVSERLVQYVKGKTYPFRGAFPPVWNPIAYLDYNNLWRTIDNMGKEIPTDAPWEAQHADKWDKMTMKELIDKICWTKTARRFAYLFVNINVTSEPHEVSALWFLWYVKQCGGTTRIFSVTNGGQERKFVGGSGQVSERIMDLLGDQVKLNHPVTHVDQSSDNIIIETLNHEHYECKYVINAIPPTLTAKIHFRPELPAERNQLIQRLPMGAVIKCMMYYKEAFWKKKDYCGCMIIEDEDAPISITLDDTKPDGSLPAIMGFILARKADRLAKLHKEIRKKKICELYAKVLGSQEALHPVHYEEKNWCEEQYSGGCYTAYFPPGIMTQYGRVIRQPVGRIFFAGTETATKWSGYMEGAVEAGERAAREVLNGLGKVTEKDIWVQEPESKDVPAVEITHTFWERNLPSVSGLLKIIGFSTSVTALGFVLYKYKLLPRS
Description: (1) Measurement of MAO-A Inhibitory Activity
The MAO-A inhibitory activity evaluation described below followed the protocol of MAO-Glo (registered trademark) Assay of Promega KK.
(§1) A test compound dissolved in 4% DMSO was added by 12.5 μL to 25 μL reaction solution (100 mM HEPES (pH 7.5), 5% glycerol) containing 400 ng of MAO-A enzyme (Sigma-Aldrich Co. LLC.), and the mixture was reacted at room temperature for 10 min. MAO substrate (Promega KK) (160 μM) was added by 12.5 μL to start the reaction. After reaction at room temperature for 60 min, Luciferine detection reagent (Promega KK) (50 μL) was added to terminate the reaction. After reaction at room temperature for 20 min with stirring, the luminescence was measured by Envision (PerkinElmer). The MAO-A inhibitory rate (%) of the test compound was calculated by the following formula. inhibitory rate (%)=(1−(test compound count−blank)÷(control−blank)×100
The count of the MAO-A enzyme reaction mixture under compound non-addition conditions is indicated as control, and the count under compound non-addition and MAO-A enzyme non-addition conditions is indicated as blank.

MAO-B = target: T3, MAO-B (Homo sapiens, UniProt P27338); assay: Measurement of MAO-B inhibitory activity (MAO-Glo Assay)
T3 construct: purchased Sigma-Aldrich Co. LLC
T3 sequence (P27338 1-520): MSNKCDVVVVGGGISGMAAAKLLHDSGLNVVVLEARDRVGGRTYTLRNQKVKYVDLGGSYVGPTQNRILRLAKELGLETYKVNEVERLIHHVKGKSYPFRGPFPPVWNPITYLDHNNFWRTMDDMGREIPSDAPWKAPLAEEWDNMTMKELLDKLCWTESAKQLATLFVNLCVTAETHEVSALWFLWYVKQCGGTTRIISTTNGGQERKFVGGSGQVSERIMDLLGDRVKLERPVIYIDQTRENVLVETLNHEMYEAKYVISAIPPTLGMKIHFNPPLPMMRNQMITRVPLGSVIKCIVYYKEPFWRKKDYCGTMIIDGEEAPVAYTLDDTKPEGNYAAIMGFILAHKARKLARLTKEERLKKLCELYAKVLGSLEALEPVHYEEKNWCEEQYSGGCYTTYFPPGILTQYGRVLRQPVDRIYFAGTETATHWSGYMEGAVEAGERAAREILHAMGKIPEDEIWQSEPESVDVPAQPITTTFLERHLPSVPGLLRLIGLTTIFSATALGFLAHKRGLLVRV
Description: (2) Measurement of MAO-B Inhibitory Activity
The MAO-B inhibitory activity evaluation described below followed the protocol of MAO-Glo (registered trademark) Assay of Promega KK.
as §1, with “glycerol, 10% DMSO)” for “glycerol)”, “MAO-B” for “MAO-A”, “(16” for “(160”
The count of the MAO-B enzyme reaction mixture under compound non-addition conditions is indicated as control, and the count under compound non-addition and MAO-B enzyme non-addition conditions is indicated as blank.

| IC50 (human LSD1(171-852)) [µM] | IC50 (MAO-A) [µM] | IC50 (MAO-B) [µM] | Structure (SMILES) |
| --- | --- | --- | --- |
| < 0.1 | 3.8 | 9.7 | O=C(Nc1ccc([C@@H]2C[C@H]2NCc2ccccc2)cc1)c1ccccc1 (relative stereo) [Example 1, N-{4-[trans-2-(benzylamino)cyclopropyl]phenyl}benzamide] |
| 0.2 | 9.3 | > 10 | CCCCCCCCN[C@@H]1C[C@H]1c1ccc(NC(=O)c2ccccc2)cc1 (relative stereo) [Example 2, N-{4-[trans-2-(octylamino)cyclopropyl]phenyl}benzamide] |
| < 0.1 | 4.4 | 9 | O=C(Nc1ccc([C@@H]2C[C@H]2NCc2ccccc2)cc1)c1cccc(Br)c1 (relative stereo) [Example 3, N-{4-[trans-2-(benzylamino)cyclopropyl]phenyl}-3-bromobenzamide] |
| 0.24 | > 10 | > 10 | CCCCCCCCN[C@@H]1C[C@H]1c1ccc(NC(=O)c2cccc(Br)c2)cc1 (relative stereo) [Example 4, 3-bromo-N-{4-[trans-2-(octylamino)cyclopropyl]phenyl}benzamide] |
| < 0.1 | 7.7 | > 10 | CN1CCC(N[C@@H]2C[C@H]2c2ccc(NC(=O)c3cccc(Br)c3)cc2)CC1 (relative stereo) [Example 5, 3-bromo-N-(4-{trans-2-[(1-methylpiperidin-4-yl)amino]cyclopropyl}phenyl)benzamide] |
| < 0.1 | > 10 | > 10 | COc1ccc(CN[C@@H]2C[C@H]2c2ccc(NC(=O)c3cccc(Br)c3)cc2)cc1OC (relative stereo) [Example 6, 3-bromo-N-(4-{trans-2-[(3,4-dimethoxybenzyl)amino]cyclopropyl}phenyl)benzamide] |
| < 0.1 | 5.6 | > 10 | Cc1cccc(C(=O)Nc2ccc([C@@H]3C[C@H]3NCc3ccccc3)cc2)c1 (relative stereo) [Example 7, N-{4-[trans-2-(benzylamino)cyclopropyl]phenyl}-3-methylbenzamide] |
| < 0.1 | 5.8 | > 10 | O=C(Nc1ccc([C@@H]2C[C@H]2NCc2ccccc2)cc1)c1cccc(C(F)(F)F)c1 (relative stereo) [Example 8, N-{4-[trans-2-(benzylamino)cyclopropyl]phenyl}-3-(trifluoromethyl)benzamide] |
| 0.28 | > 10 | > 10 | CC(C)(C)c1cccc(C(=O)Nc2ccc([C@@H]3C[C@H]3NCc3ccccc3)cc2)c1 (relative stereo) [Example 9, N-{4-[trans-2-(benzylamino)cyclopropyl]phenyl}-3-tert-butylbenzamide] |
| 0.14 | 3.3 | > 10 | O=C(Nc1ccc([C@@H]2C[C@H]2NCc2ccccc2)cc1)c1cccc(Oc2ccccc2)c1 (relative stereo) [Example 10, N-{4-[trans-2-(benzylamino)cyclopropyl]phenyl}-3-phenoxybenzamide] |
| 0.15 | 2.4 | > 10 | O=C(Nc1ccc([C@@H]2C[C@H]2NCc2ccccc2)cc1)c1cccc(OCc2ccccc2)c1 (relative stereo) [Example 11, N-{4-[trans-2-(benzylamino)cyclopropyl]phenyl}-3-(benzyloxy)benzamide hydrochloride] |
| < 0.1 | 4.7 | > 10 | O=C(Nc1ccc([C@@H]2C[C@H]2NCc2cccnc2)cc1)c1ccccc1 (relative stereo) [Example 12, N-(4-{trans-2-[(pyridin-3-ylmethyl)amino]cyclopropyl}phenyl)-benzamide bis(trifluoroacetate)] |
| < 0.1 | > 10 | > 10 | O=C(Nc1ccc([C@@H]2C[C@H]2NCc2cccs2)cc1)c1ccccc1 (relative stereo) [Example 13, N-(4-{trans-2-[(thiophen-2-ylmethyl)amino]-cyclopropyl}-phenyl)benzamide] |
| < 0.1 | > 10 | > 10 | O=C(Nc1ccc([C@@H]2C[C@H]2NCCCc2ccccc2)cc1)c1ccccc1 (relative stereo) [Example 14, N-(4-{trans-2-[(3-phenyl-propyl)amino]-cyclopropyl}-phenyl)benzamide] |
| < 0.1 | – | 8.1 | O=C(Nc1ccc([C@@H]2C[C@H]2NCC2CC2)cc1)c1cc(C(F)(F)F)ccc1F (relative stereo) [Example 73, N-(4-{trans-2-[(cyclopropylmethyl)amino]cyclopropyl}phenyl)-2-fluoro-5-(trifluoromethyl)benzamide hydrochloride] |
| – | > 10 | > 10 | Cn1cc(C(=O)Nc2ccc([C@@H]3C[C@H]3NCC3CC3)cc2)cn1 (relative stereo) [Example 163, N-(4-{trans-2-[(cyclopropylmethyl)amino]cyclopropyl}phenyl)-1-methyl-1H-pyrazole-4-carboxamide hydrochloride] |
| – | > 10 | > 10 | O=C(Nc1ccc([C@H]2C[C@@H]2NCC2CC2)cc1)c1ccc(-c2ccccc2)cc1 (single isomer, unassigned) [Example 165, N-(4-{(1R,2S) or (1S,2R)-2-[(cyclopropylmethyl)amino]cyclopropyl}phenyl)biphenyl-4-carboxamide hydrochloride] |

| Structure (SMILES) | IC50 (human LSD1(171-852)) [µM] | IC50 (MAO-A) [µM] | IC50 (MAO-B) [µM] |
| --- | --- | --- | --- |
| O=C(Nc1ccc([C@@H]2C[C@H]2NCC2CC2)cc1)c1ccc(-c2ccccc2)cc1 (single isomer, unassigned) [Example 166, N-(4-{(1S,2R) or (1R,2S)-2-[(cyclopropylmethyl)amino]cyclopropyl}phenyl)biphenyl-4-carboxamide hydrochloride] | – | > 10 | > 10 |
